The results in this text go back to PubChem BioAssay AID256 (DTP/NCI, 2004).

The subject of this test is CD2F1 mice, L1210 leukemia ip, survival T/C. As to the kind of experiment: NCI In Vivo Anticancer Drug Screen. Data for tumor model L1210 Leukemia (intraperitoneal) in CD2F1 (CDF1) mice. As to conditions: endpoint: mean survival time, higher = longer survival. In outline:
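Ratio T/C, where T is the treated-group value and C the vehicle-dosed control value, from mice implanted with a transplantable tumor.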

The mark [1] stands for this setting: dose: 12.5 mg/kg/injection, schedule: Q01DX009 (ip), vehicle: saline.
Setting [2] is: dose: 25.0 mg/kg/injection, schedule: Q01DX009 (ip), vehicle: saline.
Setting [3] is: dose: 50.0 mg/kg/injection, schedule: Q01DX009 (ip), vehicle: saline.
Setting [4] is: dose: 100.0 mg/kg/injection, schedule: Q04DX003 (ip), vehicle: saline with Tween-80.
The mark [5] stands for this setting: dose: 50.0 mg/kg/injection, schedule: Q04DX002 (ip), vehicle: saline with Tween-80.
Where [6] appears, read: dose: 100.0 mg/kg/injection, schedule: Q04DX002 (ip), vehicle: saline with Tween-80.
[7] abbreviates: dose: 100.0 mg/kg/injection, schedule: Q01DX009 (ip), vehicle: saline with Tween-80.
Where [8] appears, read: dose: 200.0 mg/kg/injection, schedule: Q01DX009 (ip), vehicle: saline with Tween-80.
Where [9] appears, read: dose: 400.0 mg/kg/injection, schedule: Q01DX009 (ip), vehicle: saline with Tween-80.
Setting [10] is: dose: 100.0 mg/kg/injection, schedule: Q01DX009 (ip), vehicle: saline.
[11] abbreviates: dose: 200.0 mg/kg/injection, schedule: Q04DX002 (ip), vehicle: saline with Tween-80.

Several values for one entry are separate records, joined by “and”; a condition that tells them apart may be missing. Equal entries are not always repeated. Toxic doses and inconclusive results are not listed.

Regarding `COc1cc([C@@H]2c3cc4c(c(O)c3C[C@H]3COC(=O)[C@@H]32)OCO4)cc(OC)c1O`, the T/C is, setting by setting: (dose: 125.0 micrograms/kg/injection, schedule: Q01DX009 (ip), vehicle: saline) 102 % of control; (dose: 250.0 micrograms/kg/injection, schedule: Q01DX009 (ip), vehicle: saline) 108 % of control; (dose: 500.0 micrograms/kg/injection, schedule: Q01DX009 (ip), vehicle: saline) 110 % of control; (dose: 1000.0 micrograms/kg/injection, schedule: Q01DX009 (ip), vehicle: saline) 122 % of control; (dose: 2000.0 micrograms/kg/injection, schedule: Q01DX009 (ip), vehicle: saline) 118 % of control.

Regarding `O=C(O)c1c(F)c(F)c(F)c(C(=O)O)c1F`, the T/C is 89 % of control under setting [1]; 95 % of control under setting [2]; 89 % of control (dose: 25.0 mg/kg/injection, schedule: Q04DX003 (ip), vehicle: saline); 95 % of control under setting [3]; 88 % of control (dose: 50.0 mg/kg/injection, schedule: Q04DX003 (ip), vehicle: saline); 93 % of control under setting [4].

As for `CC(C)(CO)COC(=O)NC1=C(N2CC2)C(=O)C(NC(=O)OCC(C)(C)CO)=C(N2CC2)C1=O`, the T/C was 119 % of control and 121 % of control (dose: 0.75 mg/kg/injection, schedule: Q01DX009 (ip), vehicle: water); 122 % of control and 106 % of control (dose: 1.5 mg/kg/injection, schedule: Q01DX009 (ip), vehicle: water); 166 % of control and 169 % of control (dose: 12.0 mg/kg/injection, schedule: Q01DX009 (ip), vehicle: water).

Take `CCCCCCCCCCCCCCP(=O)(O)O`: the T/C was 92 % of control (dose: 75.0 mg/kg/injection, schedule: Q01DX001 (ip), vehicle: other); 98 % of control (dose: 150.0 mg/kg/injection, schedule: Q01DX001 (ip), vehicle: other); 96 % of control (dose: 300.0 mg/kg/injection, schedule: Q01DX001 (ip), vehicle: other).

`CCN(CC)CC(O)CNc1cc(C)nc(/N=C(\N)Nc2ccc(Cl)c(Cl)c2)n1` (stereo not given): the T/C (dose: 6.25 mg/kg/injection, schedule: Q01DX009 (ip), vehicle: saline with Tween-80) is 98 % of control; the T/C (dose: 12.5 mg/kg/injection, schedule: Q01DX009 (ip), vehicle: saline with Tween-80) is 104 % of control; the T/C (dose: 25.0 mg/kg/injection, schedule: Q01DX009 (ip), vehicle: saline with Tween-80) is 106 % of control.

Take `Cc1ccc(S(=O)(=O)ON/N=C2\C(=O)C3CCC2C3)cc1` (stereo not given): the T/C (dose: 25.0 mg/kg/injection, schedule: Q04DX002 (ip), vehicle: saline with Tween-80) was 100 % of control; the T/C under setting [5] is 96 % of control; the T/C under setting [6] is 112 % of control.

`Cc1ccc(S(=O)(=O)N/N=C2\CC3CCC2C3)cc1` (stereo not given): the T/C under setting [7] is 90 % of control and 105 % of control; the T/C under setting [8] is 96 % of control and 100 % of control; the T/C under setting [9] is 93 % of control and 96 % of control.

On to `C[n+]1ccc(/C=C\Nc2ccccn2)cc1`, for which the T/C (dose: 75.0 mg/kg/injection, schedule: Q01DX001 (ip), vehicle: saline) is 103 % of control and the T/C (dose: 150.0 mg/kg/injection, schedule: Q01DX001 (ip), vehicle: saline) is 108 % of control.

`O=C1CCCCCCCCCCC1C(O)(C(F)(F)F)C(F)(F)F` (stereo not given): the T/C is, setting by setting: under setting [7], 96 % of control; under setting [4], 91 % of control; under setting [8], 101 % of control; (dose: 200.0 mg/kg/injection, schedule: Q04DX003 (ip), vehicle: saline with Tween-80) 95 % of control; under setting [9], 96 % of control; (dose: 400.0 mg/kg/injection, schedule: Q04DX003 (ip), vehicle: saline with Tween-80) 91 % of control.

`O=C(N=C=S)c1ccccc1`: the T/C (dose: 100.0 mg/kg/injection, schedule: Q04DX003 (ip), vehicle: other) is 90 % of control; the T/C (dose: 200.0 mg/kg/injection, schedule: Q04DX003 (ip), vehicle: other) was 101 % of control; the T/C (dose: 400.0 mg/kg/injection, schedule: Q04DX003 (ip), vehicle: other) was 101 % of control.

Consider `CCOC(=O)C(C)Sc1n[nH]c(=O)[nH]c1=O` (stereo not given), for which the T/C by setting is: (dose: 12.5 mg/kg/injection, schedule: Q01DX005 (ip), vehicle: distilled water + Tween-80) 96 % of control; (dose: 25.0 mg/kg/injection, schedule: Q01DX005 (ip), vehicle: distilled water + Tween-80) 96 % of control; (dose: 50.0 mg/kg/injection, schedule: Q01DX005 (ip), vehicle: distilled water + Tween-80) 96 % of control; (dose: 100.0 mg/kg/injection, schedule: Q01DX005 (ip), vehicle: distilled water + Tween-80) 92 % of control; (dose: 200.0 mg/kg/injection, schedule: Q01DX005 (ip), vehicle: distilled water + Tween-80) 94 % of control.

Regarding `O=C(O)O.O=C(O)O.O=C(O)O.[Co]`, the T/C is, setting by setting: (dose: 100.0 mg/kg/injection, schedule: Q01DX001 (ip), vehicle: saline) 102 % of control; (dose: 400.0 mg/kg/injection, schedule: Q04DX003 (ip), vehicle: saline) 97 % of control.

With `Cc1ccccc1N(CC1CO1)CC1CO1` (stereo not given), the T/C by setting is: under setting [1], 115 % of control and 104 % of control; under setting [2], 98 % of control and 106 % of control; under setting [3], 100 % of control and 111 % of control; under setting [10], 100 % of control and 106 % of control; (dose: 200.0 mg/kg/injection, schedule: Q01DX009 (ip), vehicle: saline) 101 % of control and 108 % of control; (dose: 400.0 mg/kg/injection, schedule: Q01DX009 (ip), vehicle: saline) 100 % of control and 106 % of control.

As for `CCN1/C(=C\c2ccc3cc(OC)ccc3[n+]2CC)[Se]c2ccc(OC)cc21`, the T/C (dose: 9.5 mg/kg/injection, schedule: Q01DX001 (ip), vehicle: other) was 86 % of control.

In the case of `CC(C)(CC/C(=N\Nc1ccc([N+](=O)[O-])cc1[N+](=O)[O-])c1ccccc1)C1OCCO1`, the T/C reads like this: under setting [5], 90 % of control; under setting [6], 98 % of control; under setting [11], 94 % of control.

For `Clc1ccccc1N=Cc1ccc2c(c1)OCO2`, the T/C by setting is: (dose: 100.0 mg/kg/injection, schedule: Q01DX009 (ip), vehicle: Klucel (hydroxypropylcellulose) (HPC)) 105 % of control; (dose: 100.0 mg/kg/injection, schedule: Q04DX003 (ip), vehicle: alcohol) 103 % of control; (dose: 200.0 mg/kg/injection, schedule: Q01DX009 (ip), vehicle: Klucel (hydroxypropylcellulose) (HPC)) 100 % of control; (dose: 200.0 mg/kg/injection, schedule: Q04DX003 (ip), vehicle: alcohol) 109 % of control; (dose: 400.0 mg/kg/injection, schedule: Q01DX009 (ip), vehicle: Klucel (hydroxypropylcellulose) (HPC)) 100 % of control; (dose: 400.0 mg/kg/injection, schedule: Q04DX003 (ip), vehicle: alcohol) 105 % of control.

As for `CCN(N=O)C(=O)Nc1ccc(C2CC(=O)N(C)C2=O)cc1` (stereo not given), the T/C (dose: 12.5 mg/kg/injection, schedule: Q01DX001 (ip), vehicle: distilled water + Tween-80) was 99 % of control; the T/C (dose: 25.0 mg/kg/injection, schedule: Q01DX001 (ip), vehicle: distilled water + Tween-80) was 111 % of control; the T/C (dose: 50.0 mg/kg/injection, schedule: Q01DX001 (ip), vehicle: distilled water + Tween-80) is 94 % of control and 98 % of control and 108 % of control; the T/C (dose: 100.0 mg/kg/injection, schedule: Q01DX001 (ip), vehicle: distilled water + Tween-80) is 122 % of control and 94 % of control and 96 % of control; the T/C (dose: 200.0 mg/kg/injection, schedule: Q01DX001 (ip), vehicle: distilled water + Tween-80) was 99 % of control and 101 % of control.

As to `O=P1(c2ccccc2)NCC(Br)CO1` (stereo not given), the T/C (dose: 31.3 mg/kg/injection, schedule: Q01DX001 (ip), vehicle: other) was 95 % of control; the T/C (dose: 62.5 mg/kg/injection, schedule: Q01DX001 (ip), vehicle: other) is 95 % of control; the T/C (dose: 125.0 mg/kg/injection, schedule: Q01DX001 (ip), vehicle: other) is 100 % of control; the T/C (dose: 250.0 mg/kg/injection, schedule: Q01DX001 (ip), vehicle: other) was 100 % of control; the T/C (dose: 500.0 mg/kg/injection, schedule: Q01DX001 (ip), vehicle: other) is 95 % of control.

On to `CC1=CCS(=O)(=O)C1`, for which the T/C reads like this: under setting [3], 111 % of control; under setting [10], 90 % of control.

For `CC12CCC(=O)C=C1CC(CC(=O)O)CC2` (stereo not given), the T/C by setting is: under setting [6], 100 % of control; under setting [11], 108 % of control; (dose: 400.0 mg/kg/injection, schedule: Q04DX002 (ip), vehicle: saline with Tween-80) 104 % of control.
